# According to the supplement of paper PMC10307832:
# Key:
# Assay in all cases: relative viability (nuclei count vs DMSO), 5 days (fraction); higher = more cells survive
# Sulindac + Phenformin = compound: CC1=C(CC(=O)O)c2cc(F)ccc2/C1=C\c1ccc([S+](C)[O-])cc1 [Sulindac] + N=C(N)NC(=N)NCCc1ccccc1 [Phenformin] (partner 250 µM)
# Outline: (§1)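 Relative viability was taken as the ratio of nuclei in treated wells to nuclei in vehicle wells. Lung cancer cell lines in 1536-well plates received compounds by pin tool one day after seeding, either one drug alone or a fixed anchor-drug dose plus five library-drug doses (not always all listed) in √10 steps. Nuclei were counted on 4× images after 5 days of treatment, and values are medians of duplicate plates.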
# Sulindac + Vorinostat = compound: CC1=C(CC(=O)O)c2cc(F)ccc2/C1=C\c1ccc([S+](C)[O-])cc1 [Sulindac] + O=C(CCCCCCC(=O)Nc1ccccc1)NO [Vorinostat] (partner 1 µM)
# Outline: as §1
# [1] = compound: CN[C@@H]1C[C@H]2O[C@@](C)([C@@H]1OC)n1c3ccccc3c3c4c(c5c6ccccc6n2c5c31)C(=O)NC4 [Staurosporine] + COc1cc2c(Oc3ccc(NC(=O)C4(C(=O)Nc5ccc(F)cc5)CC4)cc3F)ccnc2cc1OCCCN1CCOCC1 [Foretinib] (partner 0.25 µM)
# Outline: as §1
# Staurosporine + OSI-027 = compound: CN[C@@H]1C[C@H]2O[C@@](C)([C@@H]1OC)n1c3ccccc3c3c4c(c5c6ccccc6n2c5c31)C(=O)NC4 [Staurosporine] + COc1cccc2cc(-c3nc([C@H]4CC[C@H](C(=O)O)CC4)n4ncnc(N)c34)[nH]c12 [OSI-027] (partner 0.5 µM)
# Outline: as §1
cell line,measurement,setting,value
UMC-11,relative viability,Sulindac + Phenformin; first compound 0.08 µM,0.359
same,relative viability,Sulindac + Phenformin; first compound 0.253 µM,0.352
same,relative viability,Sulindac + Phenformin; first compound 0.8 µM,0.284
same,relative viability,Sulindac + Phenformin; first compound 2.53 µM,0.323
same,relative viability,Sulindac + Phenformin; first compound 8 µM,0.396
same,relative viability,Sulindac + Vorinostat; first compound 0.08 µM,0.342
same,relative viability,Sulindac + Vorinostat; first compound 0.253 µM,0.411
same,relative viability,Sulindac + Vorinostat; first compound 0.8 µM,0.374
same,relative viability,Sulindac + Vorinostat; first compound 2.53 µM,0.338
same,relative viability,Sulindac + Vorinostat; first compound 8 µM,0.386
same,relative viability,[1]; first compound 0.005 µM,1.02
same,relative viability,[1]; first compound 0.01581 µM,0.574
same,relative viability,[1]; first compound 0.05 µM,0.326
same,relative viability,[1]; first compound 0.1581 µM,0.116
same,relative viability,[1]; first compound 0.5 µM,0.077
same,relative viability,Staurosporine + OSI-027; first compound 0.005 µM,0.5
same,relative viability,Staurosporine + OSI-027; first compound 0.01581 µM,0.151
same,relative viability,Staurosporine + OSI-027; first compound 0.05 µM,0.138
same,relative viability,Staurosporine + OSI-027; first compound 0.1581 µM,0.133
same,relative viability,Staurosporine + OSI-027; first compound 0.5 µM,0.116
